Patent publication US8293781B2, “Indole derivatives having cPLA2 inhibiting activity and applications and production methods of the same” (Daiichi Sankyo Company, Limited, priority 2007, dated 2012)
Structures can show the parent of a compound that is named as a salt.

What was measured:
[1] = system: TXB2 production in whole blood; test: Calcium ionophore-induced TXB2 production system using whole blood; format: cell-based; conditions: Cavia porcellus, 0.25 h; Hartley guinea pig heparin blood diluted 2-fold, A23187 5 μM, 15 minutes
Experimental: For evaluation of the TXB2 production inhibiting activity, the calcium ionophore-induced TXB2 production system using whole blood with reference to the method of Alanko (see Alanko J., Prostaglandins 45: 193, 1993) was used. That is, heparin blood taken from Hartley guinea pigs was diluted 2-fold by an RPMI1640 medium (Nakalai Tesque) containing 10 μg/ml gentamycin (Invitrogen). The entire blood after dilution was inoculated in a 96-well culture plate in amounts of 200 μl per well, then the test compound solution or solvent was added. After 30 minutes preculture, calcium ionophore (A23187) was added to a final concentration of 5 μM to induce TXB2 production. 15 minutes after stimulus, the supernatant was recovered by centrifugal separation and the amount of TXB2 in the supernatant was measured using an EIA kit (Amersham).
Based on the measurement value, the test compound concentration suppressing 50% of the TXB2 production at the time of non-addition of a compound (IC50 value) was calculated.

[2] = system: TPA-induced mouse dermatitis model; test: TPA-induced mouse dermatitis model (ear thickness); format: in vivo; conditions: 50 mg/kg orally 30 minutes before TPA, 6 hours after TPA, C57BL/6 mice
Experimental: Phorbol ester (TPA) was applied to the ear to elicite acute inflammation having ear edema as a main symptom. In the present test model, it is known that arachidonic acid metabolites, constituting various lipid mediators, are involved in inflammation. By this Experiment, it is possible to evaluate the anti-inflammatory action in vivo of anti-inflammatory drugs acting on the arachidonic acid cascade.
The Experiment was performed with reference to the method of Chang et al. (see Chang J., Eur J Pharmacol 142: 197, 1987). That is, the ear of female C57BL/6 mice (Charles River Japan) were painted with 20 μl of TPA in an acetone solution (concentration 50 μg/ml) to induce dermatitis at the ear. The ear thicknesses before application of TPA and 6 hours after application of TPA were measured using a dial gauge and the increase in ear thickness caused by inflammation was calculated. The test compound or the 0.5% hydroxypropyl cellulose solution as vehicle was administered orally to the mice 30 minutes before application of TPA. Note that the number of mice used in the test was made six per group.
Based on the measurement value, the action of each test compound in suppressing the increase in ear thickness due to application of TPA was evaluated.

[3] = system: PGD2 production in rat mast cell like cell line RBL-2H3; test: Antigen-induced PGD2 production system using RBL-2H3 sensitized by DNP specific IgE; format: cell-based; conditions: 0.5 h, RBL-2H3, anti-DNP-IgE sensitized, antigen 10 μg/ml, 30 minutes
Experimental: To evaluate the PGD2 production inhibiting activity, the antigen-induced PGD2 production system using rat mast cell like cell line RBL-2H3 sensitized by a dinitrophenol (DNP) specific IgE with reference to the method of Yamashita et al. (see Yamashita, M. et al., Br J Pharmacol 129: 367, 2000) was used. That is, rat mast cell like cell line RBL-2H3 cells were suspended in a Dulbecco's modified Eagle's medium (Nacalai Tesque) containing 10% bovine fetal serum (BioWhittaker) and 10 μg/ml gentamycin (Invitrogen). The infiltrating cell suspension 200 μl containing 1×10^5 cells per well was inoculated to 96-well culture plate and cultured over night under conditions of 5% CO2 and 37° C. The culture supernatant was removed, then the suspension was cultured for 2 hours in the presence of an anti-DNP-IgE antibody (1 μg/ml) for 2 hours to sensitize it. After the sensitization, the supernatant was removed and the test compound solution or solvent was added. The resultant product was precultured for 30 minutes, then 10 μg/ml of antigen (DNP-human serum albumin conjugate) was added to elicite PGD2 production.
30 minutes after antigen stimulus, the culture supernatant was recovered and the amount of PGD2 in the supernatant was measured using an EIA kit (made by Cayman). Based on the measurement value, the test compound concentration (IC50 value) suppressing the amount of PGD2 production at the time of nonaddition of the compound by 50% was calculated.

[4] = system: Cys-LTs production in rat mast cell like cell line RBL-2H3; test: Calcium ionophore-induced Cys-LTs production system using RBL-2H3; format: cell-based; conditions: 1 h, RBL-2H3, A23187 5 μM, one hour
Experimental: For the evaluation by LTB4 and Cys-LTs production inhibiting activity, the calcium ionophore-induced LTB4 and Cys-LTs production system using the rat mast cell like cell line RBL-2H3 with reference to the method of Ishiwara et al. (see Ishiwara M. et al., J Pharmacol Exp Ther 307: 583, 2003) was used. That is, rat mast cell like cell line RBL-2H3 cells were suspended in Dulbecco's modified Eagle's medium (Nacalai Tesque) containing 10% bovine fetal serum (BioWhittaker) and 10 μg/ml gentamycin (Invitrogen). The infiltrating cell suspension 200 μl containing 1×10^5 cells per well was inoculated to 96-well culture plate and cultured over night under conditions of 5% CO2 and 37° C. The culture supernatant was removed, then the test compound solution or solvent 50 μl was added. After 30 minutes preculture, calcium ionophore (A23187) was added to a final concentration of 5 μM to induce leukotriene production.
One hour after calcium ionophore stimulus, the culture supernatant was recovered and the amounts of LTB4 and Cys-LTs in the supernatant were measured using an EIA kit (made by Amersham). Based on the measurement values, the test compound concentrations suppressing 50% of the mediator production at the time of non-addition of a compound (IC50 value) were calculated.

Row | Compound | IC50 [1] [µM] | Suppression rate of increase in ear thickness [2] [%] | IC50 [3] [µM] | IC50 [4] [µM]
1 | O=C(O)CCc1ccc2c(c1)c(CCc1ccccc1)cn2-c1ccc(O)cc1 [Example 126, 3-[1-(4-hydroxyphenyl)-3-(2-phenylethyl)-1H-indol-5-yl]propanoic acid] | 1.53 | 27.6 | 1.21 | 4.17
2 | O=C(O)CCc1ccc2c(c1)c(CCc1ccccc1)cn2-c1ccc(F)cc1 [Example 187, 3-[1-(4-fluorophenyl)-3-(2-phenylethyl)-1H-indol-5-yl]propanoic acid] | 5.14 | 25.4 | 0.43 | 0.89
3 | O=C(O)CCc1ccc2c(c1)c(CCc1ccccc1)cn2-c1ccc(OC(F)F)cc1 [Example 190, 3-{1-[4-(difluoromethoxy)phenyl]-3-(2-phenylethyl)-1H-indol-5-yl}propanoic acid 2-amino-2-(hydroxymethyl)propane-1,3-diol salt (1:1)] | 1.37 | 27.6 | 1.11 | 1.06
4 | COCc1ccc(-n2cc(CCc3ccccc3)c3cc(CCC(=O)O)ccc32)cc1 [Example 217, 3-{1-[4-(methoxymethyl)phenyl]-3-(2-phenylethyl)-1H-indol-5-yl}propanoic acid 2-amino-2-(hydroxymethyl)propane-1,3-diol salt (1:1)] | 2.02 | 22.8 | 1.12 | 1.26
5 | O=C(O)CCc1ccc2c(c1)c(CCc1ccccc1)cn2-c1ccc(OCCO)cc1 [Example 229, 3-{1-[4-(2-hydroxyethoxy)phenyl]-3-(2-phenylethyl)-1H-indol-5-yl}propanoic acid 2-amino-2-(hydroxymethyl)propane-1,3-diol salt (1:1)] | 0.58 | 23.9 | 0.89 | 0.4
6 | O=C(O)CCc1ccc2c(c1)c(CCc1ccccc1)cn2-c1ccc(Oc2ccccc2)cc1 [Example 231, 3-[1-(4-phenoxyphenyl)-3-(2-phenylethyl)-1H-indol-5-yl]propanoic acid 2-amino-2-(hydroxymethyl)propane-1,3-diol salt (1:1)] | 0.54 | 30.4 | 0.76 | 0.3
